In ChEMBL document CHEMBL1201862, “PubChem BioAssay data set” (2004):
Active and inactive are the calls of the source.

What was measured:
[1] = molecular target: Peroxisome proliferator-activated receptor gamma/Nuclear receptor coactivator 2 (Homo sapiens, UniProt P37231); format: functional;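 also: agonist potency for raising coactivator recruitment to the receptor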
[2] = molecular target: Peroxisome proliferator-activated receptor gamma/Nuclear receptor coactivator 1 (Homo sapiens, UniProt P37231); format: functional;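 also: agonist potency as compounds enhance coactivator SRC-1 recruitment to PPARgamma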
[3] = molecular target: Peroxisome proliferator-activated receptor gamma/Nuclear receptor coactivator 3 (Homo sapiens, UniProt P37231); format: functional;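 also: agonist potency for raising coactivator recruitment to the receptor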
[4] = molecular target: T1, Heat shock factor protein 1 (Mus musculus, UniProt P38532); experiment: HSF1 potentiators in luciferase reporter cells, confirmation, cell-based, NIH3T3, luminescence, dose retest (AID 435004); format: functional;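 also: stress induced by proteasome inhibitor MG132 added 30 min after compound; luciferase reporter driven by HSF1 response element in NIH3T3 cells; actives raise luminescence as potentiators of the MG132 stress response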
T1 sequence (P38532 whole entry): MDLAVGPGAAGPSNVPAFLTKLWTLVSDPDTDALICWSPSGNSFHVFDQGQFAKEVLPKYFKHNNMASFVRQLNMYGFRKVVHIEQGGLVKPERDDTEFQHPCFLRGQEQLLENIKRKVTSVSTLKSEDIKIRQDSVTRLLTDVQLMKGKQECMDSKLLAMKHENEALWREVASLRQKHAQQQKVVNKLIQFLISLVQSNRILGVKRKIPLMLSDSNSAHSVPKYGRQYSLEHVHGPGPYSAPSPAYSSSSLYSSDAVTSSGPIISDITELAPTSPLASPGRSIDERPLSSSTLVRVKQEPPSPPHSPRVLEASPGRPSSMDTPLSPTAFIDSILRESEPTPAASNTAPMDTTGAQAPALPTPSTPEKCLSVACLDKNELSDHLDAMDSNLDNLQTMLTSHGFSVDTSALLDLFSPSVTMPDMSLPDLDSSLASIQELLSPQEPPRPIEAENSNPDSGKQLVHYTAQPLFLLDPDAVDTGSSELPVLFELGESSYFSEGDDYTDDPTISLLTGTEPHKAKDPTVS

[5] = molecular target: 26S proteasome non-ATPase regulatory subunit 14 (Homo sapiens, UniProt O00487); experiment: inhibition of proteasome subunit RPN11 – biochemical, fluorescence polarization, uHTS hits, confirmation (AID 602368); format: functional
[6] = molecular target: 72 kDa type IV collagenase (Homo sapiens, UniProt P08253); experiment: Dose Response validation of uHTS RPN11 inhibitor hits using a MMP-2 Fluorescence assay.; format: functional
[7] = molecular target: Prothrombin (Bos taurus, UniProt P00735); experiment: thrombin inhibition, dose response, biochemical, fluorescence polarization, uHTS hits (AID 602369); format: functional
[8] = molecular target: T2, Endoribonuclease toxin MazF (Escherichia coli K-12, UniProt P0AE70); experiment: MazF toxin RNase activators, dose response, biochemical, fluorescence, single-stranded RNA substrate, uHTS hits (AID 588481); format: functional
T2 sequence (P0AE70 whole entry): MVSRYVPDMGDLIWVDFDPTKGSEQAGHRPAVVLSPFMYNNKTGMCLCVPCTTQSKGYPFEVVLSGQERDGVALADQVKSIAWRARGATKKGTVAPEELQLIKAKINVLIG

[9] = molecular target: T2, Endoribonuclease toxin MazF; experiment: fluorescent RNA oligo signal without MazF, dose response, counter-screen for MazEF activator project, biochemical, fluorescence, single-stranded RNase substrate (AID 588502); format: functional
[10] = molecular target: T3, Protein skinhead-1 (Caenorhabditis elegans, UniProt P34707); format: functional
T3 sequence (P34707 whole entry): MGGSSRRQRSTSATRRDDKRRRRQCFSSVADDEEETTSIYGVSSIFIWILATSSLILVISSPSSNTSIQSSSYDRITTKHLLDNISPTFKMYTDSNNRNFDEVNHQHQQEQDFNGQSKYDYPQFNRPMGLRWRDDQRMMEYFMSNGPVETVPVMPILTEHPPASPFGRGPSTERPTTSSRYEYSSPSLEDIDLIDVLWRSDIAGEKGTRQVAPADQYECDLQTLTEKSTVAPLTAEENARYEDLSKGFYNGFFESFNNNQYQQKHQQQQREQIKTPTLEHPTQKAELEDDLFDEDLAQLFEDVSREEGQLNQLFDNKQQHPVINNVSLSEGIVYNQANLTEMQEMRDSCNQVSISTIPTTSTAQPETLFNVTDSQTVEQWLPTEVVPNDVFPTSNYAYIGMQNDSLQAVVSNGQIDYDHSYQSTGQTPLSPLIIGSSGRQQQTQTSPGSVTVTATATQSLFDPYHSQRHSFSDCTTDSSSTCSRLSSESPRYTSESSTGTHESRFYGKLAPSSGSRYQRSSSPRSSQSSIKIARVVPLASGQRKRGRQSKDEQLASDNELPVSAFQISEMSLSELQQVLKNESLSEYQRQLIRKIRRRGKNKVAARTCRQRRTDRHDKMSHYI

[11] = molecular target: DNA dC->dU-editing enzyme APOBEC-3G (Homo sapiens, UniProt Q9HC16); experiment: Dose Response confirmation of small molecule APOBEC3G DNA Deaminase Inhibitors via a fluorescence-based single-stranded DNA deaminase assay. [Related pubchem assays (depositor defined):AID493012, AID493028]; format: functional
[12] = molecular target: Melanocortin receptor 4 (Homo sapiens, UniProt P32245); format: functional, cell-based;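 also: Cell-based assay with luminescence read-out, confirmatory dose-response testing for agonist activity of biased ligands at MC4R; human U2OS cells with tagged receptor and beta-arrestin; potency of agonists that increase receptor coupling to beta-arrestin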
[13] = tested on: H9c2; experiment: cells; format: functional, cell-based; conditions: Rattus norvegicus, H9c2, Myocardium;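 also: confirmatory concentration-response retest of ultra-high-throughput screening hits for modulation of myocardial damage; cell death induced by hydrogen peroxide oxidative stress; compound pretreatment for 60 min then peroxide exposure for 2 h; potency is for protecting the cells against peroxide damage rather than for killing them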

Chain of Melanocortin receptor 4 (P32245 whole entry): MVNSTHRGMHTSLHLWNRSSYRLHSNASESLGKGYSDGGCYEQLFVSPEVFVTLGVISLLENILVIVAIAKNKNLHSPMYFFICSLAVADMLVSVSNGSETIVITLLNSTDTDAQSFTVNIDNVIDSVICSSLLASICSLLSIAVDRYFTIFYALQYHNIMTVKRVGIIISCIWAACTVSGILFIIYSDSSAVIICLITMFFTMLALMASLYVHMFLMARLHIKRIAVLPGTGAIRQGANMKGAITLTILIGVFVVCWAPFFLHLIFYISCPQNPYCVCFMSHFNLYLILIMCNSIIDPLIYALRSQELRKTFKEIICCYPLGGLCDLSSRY
Chain of Peroxisome proliferator-activated receptor gamma/Nuclear receptor coactivator 1 (P37231 whole entry): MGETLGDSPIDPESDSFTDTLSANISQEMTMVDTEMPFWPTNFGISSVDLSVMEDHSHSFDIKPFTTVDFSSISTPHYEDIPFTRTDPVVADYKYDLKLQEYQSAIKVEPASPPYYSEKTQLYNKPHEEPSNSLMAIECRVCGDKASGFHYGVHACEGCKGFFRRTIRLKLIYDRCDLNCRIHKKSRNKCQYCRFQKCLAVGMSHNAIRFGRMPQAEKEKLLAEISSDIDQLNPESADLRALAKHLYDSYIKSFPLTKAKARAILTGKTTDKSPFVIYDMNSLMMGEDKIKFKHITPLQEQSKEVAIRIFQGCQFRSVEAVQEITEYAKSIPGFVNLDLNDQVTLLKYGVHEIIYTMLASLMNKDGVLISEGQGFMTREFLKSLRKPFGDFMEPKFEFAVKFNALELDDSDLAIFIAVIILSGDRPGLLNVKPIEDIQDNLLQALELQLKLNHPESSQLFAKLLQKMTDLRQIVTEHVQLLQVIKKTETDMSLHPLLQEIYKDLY
Chain of Peroxisome proliferator-activated receptor gamma/Nuclear receptor coactivator 1 (Q15788 whole entry, further chain): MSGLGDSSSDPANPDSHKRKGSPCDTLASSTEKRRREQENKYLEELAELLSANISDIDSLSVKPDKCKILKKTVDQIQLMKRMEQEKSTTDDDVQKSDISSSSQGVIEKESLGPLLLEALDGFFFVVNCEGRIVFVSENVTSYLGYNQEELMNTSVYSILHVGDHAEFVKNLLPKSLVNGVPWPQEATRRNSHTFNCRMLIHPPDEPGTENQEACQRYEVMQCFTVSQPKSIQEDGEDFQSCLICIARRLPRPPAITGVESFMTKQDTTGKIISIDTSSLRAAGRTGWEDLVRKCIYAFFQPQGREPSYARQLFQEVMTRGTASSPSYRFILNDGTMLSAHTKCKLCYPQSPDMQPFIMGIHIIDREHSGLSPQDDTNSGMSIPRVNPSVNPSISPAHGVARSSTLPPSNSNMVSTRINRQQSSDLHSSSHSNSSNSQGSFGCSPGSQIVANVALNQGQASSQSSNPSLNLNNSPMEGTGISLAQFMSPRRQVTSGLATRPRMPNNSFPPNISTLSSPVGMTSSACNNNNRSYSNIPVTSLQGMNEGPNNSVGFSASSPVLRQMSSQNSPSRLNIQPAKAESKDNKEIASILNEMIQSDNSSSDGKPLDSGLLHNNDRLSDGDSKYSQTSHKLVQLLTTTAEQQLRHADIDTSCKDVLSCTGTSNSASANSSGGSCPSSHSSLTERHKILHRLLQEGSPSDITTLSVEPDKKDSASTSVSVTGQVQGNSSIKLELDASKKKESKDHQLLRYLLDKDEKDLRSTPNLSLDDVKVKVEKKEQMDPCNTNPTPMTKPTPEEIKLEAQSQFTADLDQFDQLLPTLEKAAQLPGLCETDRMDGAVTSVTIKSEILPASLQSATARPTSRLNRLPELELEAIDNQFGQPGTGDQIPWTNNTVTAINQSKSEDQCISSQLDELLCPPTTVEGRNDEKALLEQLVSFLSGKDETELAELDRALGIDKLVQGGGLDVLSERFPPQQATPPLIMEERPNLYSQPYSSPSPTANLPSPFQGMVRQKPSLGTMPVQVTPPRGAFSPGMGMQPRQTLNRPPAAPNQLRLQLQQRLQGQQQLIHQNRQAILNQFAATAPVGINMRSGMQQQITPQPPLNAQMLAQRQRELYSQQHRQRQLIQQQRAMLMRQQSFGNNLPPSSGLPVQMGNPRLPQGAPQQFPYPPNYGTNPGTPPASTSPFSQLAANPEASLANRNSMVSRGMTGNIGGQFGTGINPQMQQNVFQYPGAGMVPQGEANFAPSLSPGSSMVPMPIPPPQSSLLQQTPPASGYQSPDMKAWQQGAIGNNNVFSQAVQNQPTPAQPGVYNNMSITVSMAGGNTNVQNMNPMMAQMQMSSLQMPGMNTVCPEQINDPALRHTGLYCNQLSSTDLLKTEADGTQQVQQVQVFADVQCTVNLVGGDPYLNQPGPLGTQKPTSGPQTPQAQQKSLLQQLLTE
Chain of Peroxisome proliferator-activated receptor gamma/Nuclear receptor coactivator 2 (P37231 whole entry): as the sequence (P37231 whole entry) above
Chain of Peroxisome proliferator-activated receptor gamma/Nuclear receptor coactivator 2 (Q15596 whole entry, further chain): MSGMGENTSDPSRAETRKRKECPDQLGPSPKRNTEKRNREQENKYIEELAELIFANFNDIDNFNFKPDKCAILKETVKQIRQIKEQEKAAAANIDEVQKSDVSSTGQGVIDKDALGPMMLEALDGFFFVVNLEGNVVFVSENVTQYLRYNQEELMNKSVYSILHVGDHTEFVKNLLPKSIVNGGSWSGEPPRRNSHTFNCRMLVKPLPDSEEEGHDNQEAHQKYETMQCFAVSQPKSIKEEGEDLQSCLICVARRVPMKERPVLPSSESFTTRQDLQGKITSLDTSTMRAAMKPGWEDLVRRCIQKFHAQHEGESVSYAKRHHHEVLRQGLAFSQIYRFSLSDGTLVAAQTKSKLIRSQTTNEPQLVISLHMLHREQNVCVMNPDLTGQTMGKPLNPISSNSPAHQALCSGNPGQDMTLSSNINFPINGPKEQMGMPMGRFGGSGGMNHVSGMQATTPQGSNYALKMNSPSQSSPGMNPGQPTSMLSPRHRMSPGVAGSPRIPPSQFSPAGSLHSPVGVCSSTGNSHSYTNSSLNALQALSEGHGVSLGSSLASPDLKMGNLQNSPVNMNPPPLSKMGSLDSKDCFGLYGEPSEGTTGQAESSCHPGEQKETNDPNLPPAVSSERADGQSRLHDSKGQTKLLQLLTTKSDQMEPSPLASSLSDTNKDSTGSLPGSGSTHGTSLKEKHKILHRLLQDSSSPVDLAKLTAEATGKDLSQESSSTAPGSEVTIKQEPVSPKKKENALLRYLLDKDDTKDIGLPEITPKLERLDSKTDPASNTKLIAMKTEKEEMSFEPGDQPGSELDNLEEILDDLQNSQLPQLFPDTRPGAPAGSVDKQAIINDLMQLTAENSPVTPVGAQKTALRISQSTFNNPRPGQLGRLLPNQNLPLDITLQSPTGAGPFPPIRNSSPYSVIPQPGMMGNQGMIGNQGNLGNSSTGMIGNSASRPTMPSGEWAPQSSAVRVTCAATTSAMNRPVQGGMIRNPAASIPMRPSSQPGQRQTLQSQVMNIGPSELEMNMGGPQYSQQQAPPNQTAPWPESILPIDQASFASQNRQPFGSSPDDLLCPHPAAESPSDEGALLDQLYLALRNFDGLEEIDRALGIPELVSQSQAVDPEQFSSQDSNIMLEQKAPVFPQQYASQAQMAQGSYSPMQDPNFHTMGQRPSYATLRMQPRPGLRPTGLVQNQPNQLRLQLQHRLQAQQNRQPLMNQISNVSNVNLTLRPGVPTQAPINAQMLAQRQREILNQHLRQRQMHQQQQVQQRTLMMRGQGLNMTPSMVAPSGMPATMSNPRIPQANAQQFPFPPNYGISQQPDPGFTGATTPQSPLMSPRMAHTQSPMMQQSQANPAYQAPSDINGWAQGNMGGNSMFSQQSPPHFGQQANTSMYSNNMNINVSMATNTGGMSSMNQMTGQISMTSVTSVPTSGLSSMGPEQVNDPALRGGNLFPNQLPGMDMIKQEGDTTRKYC
Chain of 26S proteasome non-ATPase regulatory subunit 14 (O00487 whole entry): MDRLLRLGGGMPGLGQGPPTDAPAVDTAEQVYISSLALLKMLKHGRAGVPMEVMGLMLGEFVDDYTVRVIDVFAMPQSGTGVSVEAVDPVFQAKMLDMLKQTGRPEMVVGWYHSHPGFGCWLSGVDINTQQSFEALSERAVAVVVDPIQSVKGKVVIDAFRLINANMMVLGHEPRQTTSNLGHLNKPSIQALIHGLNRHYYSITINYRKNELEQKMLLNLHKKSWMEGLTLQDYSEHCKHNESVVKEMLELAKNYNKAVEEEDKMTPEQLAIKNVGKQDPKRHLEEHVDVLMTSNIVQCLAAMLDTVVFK
Chain of DNA dC->dU-editing enzyme APOBEC-3G (Q9HC16 whole entry): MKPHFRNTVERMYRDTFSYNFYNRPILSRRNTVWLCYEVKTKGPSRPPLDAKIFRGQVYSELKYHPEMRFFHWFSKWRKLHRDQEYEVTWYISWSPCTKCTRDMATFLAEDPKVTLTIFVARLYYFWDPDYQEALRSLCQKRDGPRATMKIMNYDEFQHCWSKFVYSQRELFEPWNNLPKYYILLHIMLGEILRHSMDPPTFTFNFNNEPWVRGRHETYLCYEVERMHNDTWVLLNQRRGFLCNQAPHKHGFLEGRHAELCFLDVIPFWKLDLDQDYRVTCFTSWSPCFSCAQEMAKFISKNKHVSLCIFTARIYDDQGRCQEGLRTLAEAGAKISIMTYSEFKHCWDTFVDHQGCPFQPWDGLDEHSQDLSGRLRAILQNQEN

## COc1cccc(NC(=S)NC(=O)c2c(Cl)c(C)nn2C)c1
[1]
  EC50: > 79.4 µM (not active)
[2]
  EC50: > 79.4 µM (not active)
[3]
  EC50: > 79.4 µM (not active)
[4]
  EC50: 63.7 µM (active)

## CC(=O)N1CCN(c2ccc(NC(=O)/C=C/c3ccccc3)cc2)CC1
[1]
  EC50: > 79.4 µM (not active)
[2]
  EC50: > 79.4 µM (not active)
[3]
  EC50: > 79.4 µM (not active)

## CSc1cc(-c2ccc(Cl)cc2)n(Cc2ccccc2)c(=O)c1C#N
[1]
  EC50: 41.4 µM (not active)
[2]
  EC50: 44.7 µM (not active)
[3]
  EC50: 80.7 µM (not active)

## CC(C)Oc1ccc(/C=C(\NC(=O)/C=C/c2ccco2)C(=O)NCCc2nc3ccccc3[nH]2)cc1
[5]
  IC50: 57.5 µM (active)
[6]
  IC50: > 100 µM (inactive)
[7]
  IC50: 55.6 µM (active)

## COc1ccc(-c2ccc(/C=C3/C(=N)N4C(C)=CSC4=NC3=O)o2)c([N+](=O)[O-])c1
[8]
  EC50: > 99 µM (inactive)
[9]
  EC50: 29 µM (inactive)
[10]
  IC50: > 100 µM (inactive)

## COc1ccc(-c2nc3ccccc3c(=O)n2NC(=S)N(C)C)cc1
[11]
  IC50: 35.1 µM (active)

## CC(=O)c1ccc(N2CCN(C(=O)c3cc4c(C)nc5ccccc5c4o3)CC2)cc1
[8]
  EC50: > 99 µM (inactive)
[9]
  EC50: 30.7 µM (inactive)

## Cc1ccccc1C(=O)/C=C1/SCC(=O)N1C
[5]
  IC50: 18.9 µM (active)
[6]
  IC50: > 100 µM (inactive)
[7]
  IC50: 37.3 µM (active)

## CC1(C)CC(=O)C(=NNc2cc3c(cc2[N+](=O)[O-])OCCO3)C(=O)C1
[8]
  EC50: > 99 µM (inactive)
[9]
  EC50: 29.6 µM (inactive)

## Cc1cccc(NC(=S)NC(=O)C(c2ccccc2)c2ccccc2)n1
[12]
  EC50: > 89.2 µM (inactive)

## COc1ccc(-c2cc(NC(C)=O)c3ncc(-c4ccc(OC)c(OC)c4)n3c2)cc1OC
[13]
  IC50: > 79 µM (inactive)
[12]
  EC50: > 89.2 µM (inactive)

## Cc1cccnc1C(c1ccc(F)cc1)N(C)C(=O)C1CCN(CCOc2ccc(Cl)cc2Cl)CC1 (stereo not drawn)
[12]
  EC50: > 89.2 µM (inactive)
